Experimental data published in BindingDB's records for doi:10.1016/j.bmcl.2012.02.027 (Memorial Sloan-Kettering Cancer Center, 2012).

Target: Presenilin-1 (Homo sapiens, UniProt P49768)
Assay: Inhibition of gamma-secretase in cell-free human HeLa membrane assessed as amyloid beta-42 production using APP as substrate

For `CC(C)C[C@H](NC(=O)[C@H](Cc1ccccc1)C[C@@H](O)[C@H](Cc1ccccc1)NC(=O)OC(C)(C)C)C(=O)N[C@@H](Cc1ccc(C(=O)c2ccccc2)cc1)C(=O)NCCCCCNC(=O)CCCC[C@@H]1SC[C@@H]2NC(=O)N[C@@H]21`, which IC50 is on record?
Its IC50 is 300 pM.
